Results from PMC10874388, “Cyclic peptides discriminate BCL-2 and its clinical mutants from BCL-XL by engaging a single-residue discrepancy” (Nature Communications, 2024).
Where “and” joins values, the source holds several entries; their conditions need not be identical. Identical values can stand only once.

Tests used:
A549 cells (control) = assay: Cell viability assay (CellTiter-Glo), normal A549 (control); type: cell-based; details: for luminescence reading, everage: mean of 6 wells
Experimental: The cell lines Jurkat (TIB-152), El4 (TIB-39), Daudi (ccl-213), RS4:11 (crl-1873), A549 (ccl-185), HepG2 (hb-8065) and PANC-1 (crl-1469) were purchased from ATCC (American Type Culture Collection), and MGC-803 (C6582) was purchased from Beyotime (https://www.beyotime.com/product/C6582.htm). […] Daudi and RS4:11 cells were cultured in RPMI-1640 medium (HyClone, SH30809.01) and 10% FBS (Gibco, 10099-141), whereas HepG2, MGC-803 and PANC-1 cells were cultured in MDEM (HyClone, SH30243.01). Cells were maintained at 37 °C under a humidified, 5% (v/v) CO2-containing atmosphere.
(§1) Cell viability was measured using CellTiter-Glo® 2.0 Reagent (Promega, G9242). […] After different inhibitors were added into serum-free medium and cultured for 4 h (RS4:11 for 6 h), FBS were supplemented to 10% and then incubated totally for 24 h or 48 h. Finally, the IC50 values were calculated based on measurements using a microplate reader (Thermo, Varioskan LUX). Statistical analysis was performed using software GraphPad Prism 7.0.

[1] = tested on: A549 cells overexpressing BCL-2 G101V; assay: Cell viability assay, A549 stably overexpressing BCL-2 G101V; type: cell-based; details: for luminescence reading (raw, replicate wells) / luminescence reading, everage / inhibition rate: BCL2/G101V A549; for luminescence reading, everage: mean of 6 wells
Experimental: as §1
Lentivirus packaging vectors pMDLg/pRRE, pRSV-Rev, and pVSV-G were obtained from Prof. Han Jiahuai’s lab (Xiamen University). Lentiviruses were produced using 3rd-generation lentivirus packaging plasmids transiently transfected into HEK293T cells with the constructs of interest using 0.25 M CaCl2. Media was changed after 16 h, and supernatants containing infectious virus particles were harvested 24 h later. A second viral harvest was made following a further 24 h incubation with fresh media. Virus containing supernatant was filtered through a […], and stored at 4 °C or −80 °C until being used. Typically, A549 cells were seeded into 10 cm cell culture dishes at 4 ~ 8 × 10^5 cells/cm^2. An equivalent volume of virus containing culture medium was added along with polybrene (Sigma) to a final concentration of 10 µg/mL. Cells were incubated at 37 °C for 20 h, before they were washed and resuspended in fresh culture media. The expression level of BCL-2 was measured by qPCR and western blot methods.

[2] = control A549, ABT-199 0.390625 uM
[3] = control A549, ABT-199 0.78125 uM
[4] = control A549, ABT-199 1.5625 uM

IC50 ([1]; Homo sapiens, A549, 48 h, CellTiter-Glo, n = 6): 4.1 ± 0.3 µM
SMILES: CC1(C)CCC(CN2CCN(c3ccc(C(=O)NS(=O)(=O)c4ccc(NCC5CCOCC5)c([N+](=O)[O-])c4)c(Oc4cnc5[nH]ccc5c4)c3)CC2)=C(c2ccc(Cl)cc2)C1 [venetoclax]
average (raw viability reading) (A549 cells (control); A549, ABT199 20 uM): 174683
inhibition rate (A549 cells (control); A549, ABT199 20 uM, fraction, replicates): 0.6679 and 0.6686 and 0.6762 and 0.6713 and 0.6664 and 0.6741
raw viability reading (A549 cells (control); A549, ABT199 20 uM, replicates): 171800 and 174400 and 177000 and 172900 and 176200 and 175800
inhibition at 0.390625 µM (A549 cells (control); Homo sapiens, A549, control A549, ABT-199 0.390625 uM, replicate wells, read-out: inhibition rate): 26%
inhibition at 0.78125 µM (A549 cells (control); Homo sapiens, A549, control A549, ABT-199 0.78125 uM, replicate wells, read-out: inhibition rate): 33%
inhibition at 1.5625 µM (A549 cells (control); Homo sapiens, A549, control A549, ABT-199 1.5625 uM, replicate wells, read-out: inhibition rate): 61%
inhibition at 3.125 µM (A549 cells (control); Homo sapiens, A549, control A549, ABT-199 3.125 uM, replicate wells, read-out: inhibition rate): 75%
inhibition at 6.25 µM (A549 cells (control); Homo sapiens, A549, control A549, ABT-199 6.25 uM, replicate wells, read-out: inhibition rate): 76%
inhibition at 12.5 µM (A549 cells (control); Homo sapiens, A549, control A549, ABT-199 12.5 uM, replicate wells, read-out: inhibition rate): 81%
inhibition at 25 µM (A549 cells (control); Homo sapiens, A549, control A549, ABT-199 25 uM, replicate wells, read-out: inhibition rate): 87%
inhibition at 50 µM (A549 cells (control); Homo sapiens, A549, control A549, ABT-199 50 uM, replicate wells, read-out: inhibition rate): 93%
inhibition at 100 µM (A549 cells (control); Homo sapiens, A549, control A549, ABT-199 100 uM, replicate wells, read-out: inhibition rate): 98%
inhibition at 200 µM (A549 cells (control); Homo sapiens, A549, control A549, ABT-199 200 uM, replicate wells, read-out: inhibition rate): 99%
IC50 (A549 cells (control); Homo sapiens, A549, 48 h, CellTiter-Glo, n = 6, read-out: IC50 A549 control (original cells)): 1.1 ± 0.2 µM
luminescence reading (raw, replicate wells) (A549 cells (control); [2]): 589100 and 474500 and 578500 and 498700 and 513300 and 511200
luminescence reading, everage (A549 cells (control); [2]): 527550
inhibition rate (A549 cells (control); control A549, ABT-199 0.390625 uM, replicate wells): 40% and 27% and 37% and 35% and 36%
luminescence reading (raw, replicate wells) (A549 cells (control); [3]): 528700 and 466700 and 517300 and 470700 and 495500 and 475500
luminescence reading, everage (A549 cells (control); [3]): 492400
inhibition rate (A549 cells (control); control A549, ABT-199 0.78125 uM, replicate wells): 41% and 35% and 38% and 40%
luminescence reading (raw, replicate wells) (A549 cells (control); [4]): 312000 and 314300 and 298800 and 314500 and 309000 and 290800
luminescence reading, everage (A549 cells (control); [4]): 306567
inhibition rate (A549 cells (control); control A549, ABT-199 1.5625 uM, replicate wells): 60% and 62% and 63%
luminescence reading (raw, replicate wells) (A549 cells (control); control A549, ABT-199 3.125 uM): 198800 and 204700 and 191700 and 191900 and 189900 and 188800
luminescence reading, everage (A549 cells (control); control A549, ABT-199 3.125 uM): 194300
inhibition rate (A549 cells (control); control A549, ABT-199 3.125 uM, replicate wells): 74%
luminescence reading (raw, replicate wells) (A549 cells (control); control A549, ABT-199 6.25 uM): 186800 and 193000 and 186700 and 177700 and 179700 and 186500
luminescence reading, everage (A549 cells (control); control A549, ABT-199 6.25 uM): 185067
inhibition rate (A549 cells (control); control A549, ABT-199 6.25 uM, replicate wells): 78% and 77%
luminescence reading (raw, replicate wells) (A549 cells (control); control A549, ABT-199 12.5 uM): 154400 and 153500 and 158000 and 148200 and 149400 and 149600
luminescence reading, everage (A549 cells (control); control A549, ABT-199 12.5 uM): 152183
inhibition rate (A549 cells (control); control A549, ABT-199 12.5 uM, replicate wells): 80%
luminescence reading (raw, replicate wells) (A549 cells (control); control A549, ABT-199 25 uM): 102900 and 103500 and 106000 and 102100 and 105400 and 102800
luminescence reading, everage (A549 cells (control); control A549, ABT-199 25 uM): 103783
luminescence reading (raw, replicate wells) (A549 cells (control); control A549, ABT-199 50 uM): 55930 and 54730 and 51960 and 49990 and 56070 and 56150
luminescence reading, everage (A549 cells (control); control A549, ABT-199 50 uM): 54138
inhibition rate (A549 cells (control); control A549, ABT-199 50 uM, replicate wells): 94%
luminescence reading (raw, replicate wells) (A549 cells (control); control A549, ABT-199 100 uM): 16550 and 16810 and 16440 and 16110 and 17860 and 16240
luminescence reading, everage (A549 cells (control); control A549, ABT-199 100 uM): 16668
luminescence reading (raw, replicate wells) (A549 cells (control); control A549, ABT-199 200 uM): 6435 and 6601 and 7137 and 6682 and 6762 and 7490
luminescence reading, everage (A549 cells (control); control A549, ABT-199 200 uM): 6851
luminescence reading (raw, replicate wells) ([1]; ABT-199 0.390625 uM): 626600 and 647800 and 649100 and 614500 and 623500 and 619300
luminescence reading, everage ([1]; ABT-199 0.390625 uM): 630133
inhibition rate ([1]; ABT-199 0.390625 uM, replicate wells): -3% and -6.36% and -6.57% and -0.889% and -2.37% and -1.68%
luminescence reading (raw, replicate wells) ([1]; ABT-199 0.78125 uM): 583300 and 568200 and 597700 and 560800 and 571600 and 528100
luminescence reading, everage ([1]; ABT-199 0.78125 uM): 568283
inhibition rate ([1]; ABT-199 0.78125 uM, replicate wells): 4.23% and 7% and 1.87% and 8% and 6% and 13%
luminescence reading (raw, replicate wells) ([1]; ABT-199 1.5625 uM): 398200 and 407800 and 413600 and 450500 and 408700 and 467800
luminescence reading, everage ([1]; ABT-199 1.5625 uM): 424433
inhibition rate ([1]; ABT-199 1.5625 uM, replicate wells): 33% and 32% and 26% and 23%
luminescence reading (raw, replicate wells) ([1]; ABT-199 3.125 uM): 271900 and 280300 and 266200 and 296500 and 277300 and 344500
luminescence reading, everage ([1]; ABT-199 3.125 uM): 289450
inhibition rate ([1]; ABT-199 3.125 uM, replicate wells): 54% and 56% and 51% and 43%
luminescence reading (raw, replicate wells) ([1]; ABT-199 6.25 uM): 262900 and 273800 and 273900 and 296400 and 264200 and 315700
luminescence reading, everage ([1]; ABT-199 6.25 uM): 281150
inhibition rate ([1]; ABT-199 6.25 uM, replicate wells): 51% and 48%
luminescence reading (raw, replicate wells) ([1]; ABT-199 12.5 uM): 184500 and 179700 and 182600 and 196200 and 190700 and 205800
luminescence reading, everage ([1]; ABT-199 12.5 uM): 189917
inhibition rate ([1]; ABT-199 12.5 uM, replicate wells): 68% and 69% and 66%
luminescence reading (raw, replicate wells) ([1]; ABT-199 25 uM): 98970 and 101200 and 102400 and 107200 and 99210 and 118800
luminescence reading, everage ([1]; ABT-199 25 uM): 104630
inhibition rate ([1]; ABT-199 25 uM, replicate wells): 83% and 82% and 80%
luminescence reading (raw, replicate wells) ([1]; ABT-199 50 uM): 50230 and 51420 and 49850 and 51590 and 53640 and 55790
luminescence reading, everage ([1]; ABT-199 50 uM): 52087
inhibition rate ([1]; ABT-199 50 uM, replicate wells): 91%
luminescence reading (raw, replicate wells) ([1]; ABT-199 100 uM): 16880 and 17260 and 16270 and 16910 and 17660 and 17950
luminescence reading, everage ([1]; ABT-199 100 uM): 17155
luminescence reading (raw, replicate wells) ([1]; ABT-199 200 uM): 5500 and 6087 and 6493 and 5130 and 5793 and 6329
luminescence reading, everage ([1]; ABT-199 200 uM): 5889
inhibition at 1.5625 µM ([1]; Homo sapiens, A549, BCL2/G101V A549, ABT-199 1.5625 uM, replicate wells, read-out: inhibition rate): 35%
inhibition at 3.125 µM ([1]; Homo sapiens, A549, BCL2/G101V A549, ABT-199 3.125 uM, replicate wells, read-out: inhibition rate): 55%
inhibition at 6.25 µM ([1]; Homo sapiens, A549, BCL2/G101V A549, ABT-199 6.25 uM, replicate wells, read-out: inhibition rate): 57%
inhibition at 12.5 µM ([1]; Homo sapiens, A549, BCL2/G101V A549, ABT-199 12.5 uM, replicate wells, read-out: inhibition rate): 70%
inhibition at 25 µM ([1]; Homo sapiens, A549, BCL2/G101V A549, ABT-199 25 uM, replicate wells, read-out: inhibition rate): 84%
inhibition at 50 µM ([1]; Homo sapiens, A549, BCL2/G101V A549, ABT-199 50 uM, replicate wells, read-out: inhibition rate): 92%
inhibition at 100 µM ([1]; Homo sapiens, A549, BCL2/G101V A549, ABT-199 100 uM, replicate wells, read-out: inhibition rate): 97%
inhibition at 200 µM ([1]; Homo sapiens, A549, BCL2/G101V A549, ABT-199 200 uM, replicate wells, read-out: inhibition rate): 99%
